Where two headings read alike, the source gives them in different places.
Legend:
[1] = target: Tb-labeled inactive PDGFRβ (Homo sapiens (Human), UniProt P09619); assay: PDGFRβ LanthaScreen Assay; type: binding; settings: read-out: PDGFR Lantha IC50
VEGFR2, unphosphorylated = VEGFR2, unphosphorylated (Homo sapiens (Human), UniProt P35968); assay: VEGFR ADP GLO Assay; type: biochemical
PDGFRβ = PDGFRβ (Rattus norvegicus (Rat), UniProt Q05030); assay: PDGFRβ Cellular Assay (PDGFRb P-Y751 HTRF in A10 cells stimulated with PDGF-BB); type: cell-based
Procedure, shortened: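 Phospho-Y751 PDGFRβ was measured by HTRF in lysates of A10 rat cells. Cells received compound for 3 hours before PDGF-BB stimulation (100 ng/mL working stock).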

VEGFR2, unphosphorylated, sequence (P35968 20-1356): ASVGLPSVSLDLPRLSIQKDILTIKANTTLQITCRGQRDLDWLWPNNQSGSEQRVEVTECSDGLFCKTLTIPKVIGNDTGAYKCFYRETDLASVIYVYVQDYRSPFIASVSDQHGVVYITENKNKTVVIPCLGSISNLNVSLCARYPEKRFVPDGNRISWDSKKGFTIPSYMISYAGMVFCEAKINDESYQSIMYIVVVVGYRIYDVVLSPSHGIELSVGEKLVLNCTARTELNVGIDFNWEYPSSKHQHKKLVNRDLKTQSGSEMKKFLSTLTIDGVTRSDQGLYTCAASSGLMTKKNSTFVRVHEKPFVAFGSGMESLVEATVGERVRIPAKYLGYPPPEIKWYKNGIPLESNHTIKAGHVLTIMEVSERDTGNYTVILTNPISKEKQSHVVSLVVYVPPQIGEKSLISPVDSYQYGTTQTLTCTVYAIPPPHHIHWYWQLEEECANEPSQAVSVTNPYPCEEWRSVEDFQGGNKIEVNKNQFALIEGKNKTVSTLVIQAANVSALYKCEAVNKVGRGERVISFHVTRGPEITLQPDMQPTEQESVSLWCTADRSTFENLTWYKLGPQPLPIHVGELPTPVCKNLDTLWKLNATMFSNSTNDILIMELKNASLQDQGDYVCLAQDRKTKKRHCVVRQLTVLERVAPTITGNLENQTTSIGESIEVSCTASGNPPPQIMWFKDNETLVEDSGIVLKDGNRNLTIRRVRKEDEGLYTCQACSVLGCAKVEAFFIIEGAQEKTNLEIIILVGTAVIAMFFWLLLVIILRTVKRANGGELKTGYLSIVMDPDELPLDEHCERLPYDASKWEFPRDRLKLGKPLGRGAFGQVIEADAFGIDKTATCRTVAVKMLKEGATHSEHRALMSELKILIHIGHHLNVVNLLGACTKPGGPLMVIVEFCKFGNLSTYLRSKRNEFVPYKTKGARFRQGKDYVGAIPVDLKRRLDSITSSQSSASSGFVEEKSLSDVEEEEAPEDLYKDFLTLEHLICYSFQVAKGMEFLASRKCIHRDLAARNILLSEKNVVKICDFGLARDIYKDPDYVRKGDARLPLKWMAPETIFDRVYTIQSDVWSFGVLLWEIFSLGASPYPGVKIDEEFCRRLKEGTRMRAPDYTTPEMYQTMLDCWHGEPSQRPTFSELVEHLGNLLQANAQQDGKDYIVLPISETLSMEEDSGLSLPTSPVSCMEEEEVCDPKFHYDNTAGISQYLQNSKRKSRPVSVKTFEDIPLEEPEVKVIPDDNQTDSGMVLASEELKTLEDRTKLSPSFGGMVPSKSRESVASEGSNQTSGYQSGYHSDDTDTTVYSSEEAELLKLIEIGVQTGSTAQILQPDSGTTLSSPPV
PDGFRβ, sequence (Q05030 32-1097): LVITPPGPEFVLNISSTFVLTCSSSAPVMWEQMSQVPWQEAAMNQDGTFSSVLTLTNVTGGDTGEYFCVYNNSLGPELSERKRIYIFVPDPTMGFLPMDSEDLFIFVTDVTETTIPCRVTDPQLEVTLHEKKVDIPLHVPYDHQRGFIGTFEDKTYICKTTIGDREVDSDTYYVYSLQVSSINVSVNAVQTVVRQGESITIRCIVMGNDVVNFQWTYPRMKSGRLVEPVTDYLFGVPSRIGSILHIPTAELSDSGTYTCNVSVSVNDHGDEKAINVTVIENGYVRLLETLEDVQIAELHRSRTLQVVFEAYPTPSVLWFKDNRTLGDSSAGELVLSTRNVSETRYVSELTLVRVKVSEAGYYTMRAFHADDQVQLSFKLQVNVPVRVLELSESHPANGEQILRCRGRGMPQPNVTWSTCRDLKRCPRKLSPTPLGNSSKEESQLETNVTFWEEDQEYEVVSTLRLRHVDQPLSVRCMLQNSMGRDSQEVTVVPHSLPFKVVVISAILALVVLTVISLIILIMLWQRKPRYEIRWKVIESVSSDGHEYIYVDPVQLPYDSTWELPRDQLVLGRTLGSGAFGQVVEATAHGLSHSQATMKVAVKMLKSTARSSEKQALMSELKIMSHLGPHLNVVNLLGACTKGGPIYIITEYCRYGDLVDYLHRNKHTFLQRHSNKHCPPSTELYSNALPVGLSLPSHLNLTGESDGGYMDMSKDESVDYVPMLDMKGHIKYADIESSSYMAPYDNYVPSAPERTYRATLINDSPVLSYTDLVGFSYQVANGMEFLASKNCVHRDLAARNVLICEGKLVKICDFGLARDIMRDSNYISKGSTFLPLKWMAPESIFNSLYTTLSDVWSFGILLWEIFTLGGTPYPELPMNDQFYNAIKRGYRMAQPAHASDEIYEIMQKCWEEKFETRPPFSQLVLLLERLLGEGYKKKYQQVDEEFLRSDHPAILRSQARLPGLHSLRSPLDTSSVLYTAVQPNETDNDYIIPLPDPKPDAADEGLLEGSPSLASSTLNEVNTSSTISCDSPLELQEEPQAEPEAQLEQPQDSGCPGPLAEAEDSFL
Tb-labeled inactive PDGFRβ, sequence (P09619 33-1106): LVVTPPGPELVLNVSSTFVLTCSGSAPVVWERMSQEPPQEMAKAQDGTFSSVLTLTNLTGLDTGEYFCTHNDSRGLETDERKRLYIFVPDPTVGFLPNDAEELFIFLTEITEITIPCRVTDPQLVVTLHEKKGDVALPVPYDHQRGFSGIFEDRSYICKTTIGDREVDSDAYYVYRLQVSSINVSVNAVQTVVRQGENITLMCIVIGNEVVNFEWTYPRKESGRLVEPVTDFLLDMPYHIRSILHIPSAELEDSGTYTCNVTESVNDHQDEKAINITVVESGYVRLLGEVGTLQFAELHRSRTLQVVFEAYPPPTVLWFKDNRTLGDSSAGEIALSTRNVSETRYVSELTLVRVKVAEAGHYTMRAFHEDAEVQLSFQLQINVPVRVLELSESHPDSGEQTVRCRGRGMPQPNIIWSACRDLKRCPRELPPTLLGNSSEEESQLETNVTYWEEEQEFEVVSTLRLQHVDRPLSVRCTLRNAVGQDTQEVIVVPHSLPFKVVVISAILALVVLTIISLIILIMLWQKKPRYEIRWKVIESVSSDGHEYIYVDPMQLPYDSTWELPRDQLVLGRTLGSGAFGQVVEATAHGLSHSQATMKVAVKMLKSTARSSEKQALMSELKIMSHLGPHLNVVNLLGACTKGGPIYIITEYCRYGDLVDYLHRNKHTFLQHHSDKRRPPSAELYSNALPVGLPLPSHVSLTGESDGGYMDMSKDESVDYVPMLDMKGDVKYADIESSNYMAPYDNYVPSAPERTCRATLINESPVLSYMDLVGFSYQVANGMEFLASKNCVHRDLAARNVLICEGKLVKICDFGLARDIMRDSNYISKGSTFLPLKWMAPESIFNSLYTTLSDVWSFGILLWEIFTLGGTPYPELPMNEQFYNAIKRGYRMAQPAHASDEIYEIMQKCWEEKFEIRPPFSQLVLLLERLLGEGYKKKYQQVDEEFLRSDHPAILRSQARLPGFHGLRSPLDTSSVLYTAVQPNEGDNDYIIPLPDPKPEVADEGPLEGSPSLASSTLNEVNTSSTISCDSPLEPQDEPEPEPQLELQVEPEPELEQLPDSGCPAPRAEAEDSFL

SMILES | IC50 [1] | IC50 (VEGFR2, unphosphorylated) | IC50 (PDGFRβ; read-out: PDGFR Cellular IC50) | IC50 (PDGFRβ; PDGFR Cellular IC50)
Cc1ncc(C(=O)NCCN2CCCC23CCC3)cc1NC(=O)c1cnn2cc(-c3cn(C)nc3C)sc12 [Example 213, N-(5-((2-(5-azaspiro[3.4]octan-5-yl)ethyl)carbamoyl)-2-methylpyridin-3-yl)-2-(1,3-dimethyl-1H-pyrazol-4-yl)pyrazolo[5,1-b]thiazole-7-carboxamide] | 1.9 nM | > 7500 nM | 2.4 nM | –
Cc1ncc(C(=O)NC2CN(C(C)(C)C)C2)cc1NC(=O)c1cnn2cc(-c3cnn(C)c3)sc12 [Example 237, N-(5-((1-(tert-butyl)azetidin-3-yl)carbamoyl)-2-methylpyridin-3-yl)-2-(1-methyl-1H-pyrazol-4-yl)pyrazolo[5,1-b]thiazole-7-carboxamide] | 57.2 nM | > 7500 nM | – | 619 nM
Cc1ncc(NC(=O)CN(C)C2CCOCC2)cc1NC(=O)c1cnn2cc(-c3cnn(C)c3)sc12 [Example 15, 2-(1-methyl-1H-pyrazol-4-yl)-N-(2-methyl-5-(2-(methyl(tetrahydro-2H-pyran-4-yl)amino)acetamido)pyridin-3-yl)pyrazolo[5,1-b]thiazole-7-carboxamide] | 4.7 nM | > 7500 nM | 15.7 nM | –
Cc1cc(C(=O)NCCN2[C@H](C)CCC[C@@H]2C)sc1NC(=O)c1cnn2cc(-c3cnn(C)c3)sc12 [Example 198, N-(5-((2-((2S,6R)-2,6-dimethylpiperidin-1-yl)ethyl)carbamoyl)-3-methylthiophen-2-yl)-2-(1-methyl-1H-pyrazol-4-yl)pyrazolo[5,1-b]thiazole-7-carboxamide] | 111 nM | > 7500 nM | – | 105 nM
Cc1ncc(NC(=O)CN2CCC3(COC3)C2)cc1NC(=O)c1cnn2cc(-c3cnn(C)c3)sc12 [Example 18, N-(5-(2-(2-oxa-6-azaspiro[3.4]octan-6-yl)acetamido)-2-methylpyridin-3-yl)-2-(1-methyl-1H-pyrazol-4-yl)pyrazolo[5,1-b]thiazole-7-carboxamide] | 9.5 nM | > 7500 nM | 49.8 nM | –
Cc1cc(C(=O)NCCN2CCC3(CCC3)CC2)sc1NC(=O)c1cnn2cc(-c3cnn(C)c3)sc12 [Example 203, N-(5-((2-(7-azaspiro[3.5]nonan-7-yl)ethyl)carbamoyl)-3-methylthiophen-2-yl)-2-(1-methyl-1H-pyrazol-4-yl)pyrazolo[5,1-b]thiazole-7-carboxamide] | 1060 nM | > 7500 nM | 449 nM | –
COc1ncccc1-c1cn2ncc(C(=O)Nc3cc(C(=O)NCCN4CCCC4)cnc3C)c2s1 [Example 229, 2-(2-Methoxypyridin-3-yl)-N-(2-methyl-5-((2-(pyrrolidin-1-yl)ethyl)carbamoyl)pyridin-3-yl)pyrazolo[5,1-b]thiazole-7-carboxamide] | 1.6 nM | > 833 nM | 15.5 nM | –
Cc1ncc(NC(=O)OCCN2CC3CCC2C3)cc1NC(=O)c1cnn2cc(-c3cnn(C)c3)sc12 (stereo not drawn) [Example 250, 2-(2-azabicyclo[2.2.1]heptan-2-yl)ethyl (6-methyl-5-(2-(1-methyl-1H-pyrazol-4-yl)pyrazolo[5,1-b]thiazole-7-carboxamido)pyridin-3-yl)carbamate] | 75.2 nM | > 7500 nM | 299 nM | –
Cc1cc(C(=O)NCCN2CCC(CO)CC2)sc1NC(=O)c1cnn2cc(-c3cnn(C)c3)sc12 [Example 193, N-(5-((2-(4-(hydroxymethyl)piperidin-1-yl)ethyl)carbamoyl)-3-methylthiophen-2-yl)-2-(1-methyl-1H-pyrazol-4-yl)pyrazolo[5,1-b]thiazole-7-carboxamide] | > 3000 nM | > 7500 nM | > 3000 nM | –
Cc1ncc(NC(=O)OCCN2CCCC2(C)C)cc1NC(=O)c1cnn2cc(-c3cnn(C)c3)sc12 [Example 247, 2-(2,2-dimethylpyrrolidin-1-yl)ethyl (6-methyl-5-(2-(1-methyl-1H-pyrazol-4-yl)pyrazolo[5,1-b]thiazole-7-carboxamido)pyridin-3-yl)carbamate] | 19.3 nM | > 7500 nM | 18.3 nM | –
Cc1cc(C(=O)NCCN2CCCC(O)C2)sc1NC(=O)c1cnn2cc(-c3cnn(C)c3)sc12 (stereo not drawn) [Example 200, N-(5-((2-(3-hydroxypiperidin-1-yl)ethyl)carbamoyl)-3-methylthiophen-2-yl)-2-(1-methyl-1H-pyrazol-4-yl)pyrazolo[5,1-b]thiazole-7-carboxamide] | 2210 nM | > 7500 nM | > 3000 nM | –
Cc1cc(C(=O)NCC(C)(C)N2CCCC2)sc1NC(=O)c1cnn2cc(-c3cnn(C)c3)sc12 [Example 202, 2-(1-methyl-1H-pyrazol-4-yl)-N-(3-methyl-5-((2-methyl-2-(pyrrolidin-1-yl)propyl)carbamoyl)thiophen-2-yl)pyrazolo[5,1-b]thiazole-7-carboxamide] | > 3000 nM | > 7500 nM | – | > 3000 nM
Cc1ncc(C(=O)NCCN2CCCC2)cc1NC(=O)c1cnn2cc(-c3c(C)nn(C)c3C)sc12 [Example 223, N-(2-methyl-5-((2-(pyrrolidin-1-yl)ethyl)carbamoyl)pyridin-3-yl)-2-(1,3,5-trimethyl-1H-pyrazol-4-yl)pyrazolo[5,1-b]thiazole-7-carboxamide] | 5.7 nM | > 833 nM | 69.5 nM | –
Cc1ncc(NC(=O)CN2CCC(F)(F)CC2)cc1NC(=O)c1cnn2cc(-c3cnn(C)c3)sc12 [Example 14, N-(5-(2-(4,4-difluoropiperidin-1-yl)acetamido)-2-methylpyridin-3-yl)-2-(1-methyl-1H-pyrazol-4-yl)pyrazolo[5,1-b]thiazole-7-carboxamide] | 2.7 nM | > 7500 nM | 4.4 nM | –
Cc1ncc(NC(=O)OC[C@@H]2CCCN2C(C)C)cc1NC(=O)c1cnn2cc(-c3cnn(C)c3)sc12 [Example 245, (S)-(1-isopropylpyrrolidin-2-yl)methyl (6-methyl-5-(2-(1-methyl-1H-pyrazol-4-yl)pyrazolo[5,1-b]thiazole-7-carboxamido)pyridin-3-yl)carbamate] | 10.8 nM | > 7500 nM | 18.1 nM | –
Cc1cc(C(=O)NCCN2CC3CCC2CC3)sc1NC(=O)c1cnn2cc(-c3cnn(C)c3)sc12 [Example 199, N-(5-((2-(2-azabicyclo[2.2.2]octan-2-yl)ethyl)carbamoyl)-3-methylthiophen-2-yl)-2-(1-methyl-1H-pyrazol-4-yl)pyrazolo[5,1-b]thiazole-7-carboxamide] | 125 nM | > 7500 nM | 237 nM | –
Cc1ncc(NC(=O)OCC(C)N2CCCC2)cc1NC(=O)c1cnn2cc(-c3cnn(C)c3)sc12 (stereo not drawn) [Example 248, 2-(pyrrolidin-1-yl)propyl (6-methyl-5-(2-(1-methyl-1H-pyrazol-4-yl)pyrazolo[5,1-b]thiazole-7-carboxamido)pyridin-3-yl)carbamate] | 10.2 nM | > 7500 nM | 31.3 nM | –
Cc1cc(C(=O)NCCN2CCCC2(C)C)sc1NC(=O)c1cnn2cc(-c3ccc(N)nc3)sc12 [Example 184, 2-(6-aminopyridin-3-yl)-N-(5-((2-(2,2-dimethylpyrrolidin-1-yl)ethyl)carbamoyl)-3-methylthiophen-2-yl)pyrazolo[5,1-b]thiazole-7-carboxamide] | 829 nM | > 7500 nM | 1630 nM | –
Cc1ncc(C(=O)NCCN2CCCC2)cc1NC(=O)c1cnn2cc(-c3cn(C)nc3C)sc12 [Example 218, 2-(1,3-Dimethyl-1H-pyrazol-4-yl)-N-(2-methyl-5-((2-(pyrrolidin-1-yl)ethyl)carbamoyl)pyridin-3-yl)pyrazolo[5,1-b]thiazole-7-carboxamide] | 3.6 nM | > 7500 nM | 78.8 nM | –
Cc1ncc(C(=O)NCCN2CCCC2(C)C)cc1NC(=O)c1cnn2cc(-c3cccc4c3cnn4C)sc12 [Example 240, N-(5-((2-(2,2-dimethylpyrrolidin-1-yl)ethyl)carbamoyl)-2-methylpyridin-3-yl)-2-(1-methyl-1H-indazol-4-yl)pyrazolo[5,1-b]thiazole-7-carboxamide] | 2 nM | > 2500 nM | 11.8 nM | –
Cc1ncc(NC(=O)CCN2CCCC2(C)C)cc1NC(=O)c1cnn2cc(-c3ccn(C)n3)sc12 [Example 12, N-(5-(3-(2,2-dimethylpyrrolidin-1-yl)propanamido)-2-methyl-pyridin-3-yl)-2-(1-methyl-1H-pyrazol-3-yl)pyrazolo[5,1-b]thiazole-7-carboxamide] | 3.3 nM | > 7500 nM | 7.7 nM | –
Cc1ncc(C(=O)NCCN2CC3CCC2C3)cc1NC(=O)c1cnn2cc(-c3cnn(C)c3C)sc12 (stereo not drawn) [Example 210, N-(5-((2-(2-azabicyclo[2.2.1]heptan-2-yl)ethyl)carbamoyl)-2-methylpyridin-3-yl)-2-(1,5-dimethyl-1H-pyrazol-4-yl)pyrazolo[5,1-b]thiazole-7-carboxamide] | 2.6 nM | > 7500 nM | 89.8 nM | –
Cc1ncc(NC(=O)OCC(C)(C)N2CCCC2)cc1NC(=O)c1cnn2cc(-c3cnn(C)c3)sc12 [Example 249, 2-methyl-2-(pyrrolidin-1-yl)propyl (6-methyl-5-(2-(1-methyl-1H-pyrazol-4-yl)pyrazolo[5,1-b]thiazole-7-carboxamido)pyridin-3-yl)carbamate] | 6.5 nM | > 7500 nM | 59.8 nM | –
Cc1ncc(NC(=O)OC[C@H]2CCCN2C)cc1NC(=O)c1cnn2cc(-c3cnn(C)c3)sc12 [Example 244, (R)-(1-methylpyrrolidin-2-yl)methyl (6-methyl-5-(2-(1-methyl-1H-pyrazol-4-yl)pyrazolo[5,1-b]thiazole-7-carboxamido)pyridin-3-yl)carbamate] | 15.3 nM | > 7500 nM | – | 22.9 nM
